# Source: patent US20210387966A1, “2-AMINO-N-HETEROARYL-NICOTINAMIDES AS NAV1.8 INHIBITORS” (Merck Sharp & Dohme Corp., priority 2018, published 2021)
# Target: T1, human Nav1.8 channels (Homo sapiens, UniProt Q9Y5Y9)
# T1 construct: expressed in transfected cells
# Assay: Nav1.8 Qube automated patch-clamp assay
# Assay type: cell-based
# Conditions: human Nav1.8 stably expressed in HEK 293 cells; whole-cell voltage clamp, room temperature; resting or inactivated state not specified; read-out: IC50 values (nM) for Examples in the Nav1.8 Qube Assay
# Summary of the method: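 Whole-cell patch clamp at room temperature on HEK293 cells stably expressing human Nav1.8. A 1 Hz train of ten 20 ms pulses to 10 mV from −90 mV holding, with −67 mV repolarization, was applied; first- and tenth-pulse peak currents gave resting and inactivated-state IC50s by Hill fitting.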
# T1 sequence (Q9Y5Y9 whole entry): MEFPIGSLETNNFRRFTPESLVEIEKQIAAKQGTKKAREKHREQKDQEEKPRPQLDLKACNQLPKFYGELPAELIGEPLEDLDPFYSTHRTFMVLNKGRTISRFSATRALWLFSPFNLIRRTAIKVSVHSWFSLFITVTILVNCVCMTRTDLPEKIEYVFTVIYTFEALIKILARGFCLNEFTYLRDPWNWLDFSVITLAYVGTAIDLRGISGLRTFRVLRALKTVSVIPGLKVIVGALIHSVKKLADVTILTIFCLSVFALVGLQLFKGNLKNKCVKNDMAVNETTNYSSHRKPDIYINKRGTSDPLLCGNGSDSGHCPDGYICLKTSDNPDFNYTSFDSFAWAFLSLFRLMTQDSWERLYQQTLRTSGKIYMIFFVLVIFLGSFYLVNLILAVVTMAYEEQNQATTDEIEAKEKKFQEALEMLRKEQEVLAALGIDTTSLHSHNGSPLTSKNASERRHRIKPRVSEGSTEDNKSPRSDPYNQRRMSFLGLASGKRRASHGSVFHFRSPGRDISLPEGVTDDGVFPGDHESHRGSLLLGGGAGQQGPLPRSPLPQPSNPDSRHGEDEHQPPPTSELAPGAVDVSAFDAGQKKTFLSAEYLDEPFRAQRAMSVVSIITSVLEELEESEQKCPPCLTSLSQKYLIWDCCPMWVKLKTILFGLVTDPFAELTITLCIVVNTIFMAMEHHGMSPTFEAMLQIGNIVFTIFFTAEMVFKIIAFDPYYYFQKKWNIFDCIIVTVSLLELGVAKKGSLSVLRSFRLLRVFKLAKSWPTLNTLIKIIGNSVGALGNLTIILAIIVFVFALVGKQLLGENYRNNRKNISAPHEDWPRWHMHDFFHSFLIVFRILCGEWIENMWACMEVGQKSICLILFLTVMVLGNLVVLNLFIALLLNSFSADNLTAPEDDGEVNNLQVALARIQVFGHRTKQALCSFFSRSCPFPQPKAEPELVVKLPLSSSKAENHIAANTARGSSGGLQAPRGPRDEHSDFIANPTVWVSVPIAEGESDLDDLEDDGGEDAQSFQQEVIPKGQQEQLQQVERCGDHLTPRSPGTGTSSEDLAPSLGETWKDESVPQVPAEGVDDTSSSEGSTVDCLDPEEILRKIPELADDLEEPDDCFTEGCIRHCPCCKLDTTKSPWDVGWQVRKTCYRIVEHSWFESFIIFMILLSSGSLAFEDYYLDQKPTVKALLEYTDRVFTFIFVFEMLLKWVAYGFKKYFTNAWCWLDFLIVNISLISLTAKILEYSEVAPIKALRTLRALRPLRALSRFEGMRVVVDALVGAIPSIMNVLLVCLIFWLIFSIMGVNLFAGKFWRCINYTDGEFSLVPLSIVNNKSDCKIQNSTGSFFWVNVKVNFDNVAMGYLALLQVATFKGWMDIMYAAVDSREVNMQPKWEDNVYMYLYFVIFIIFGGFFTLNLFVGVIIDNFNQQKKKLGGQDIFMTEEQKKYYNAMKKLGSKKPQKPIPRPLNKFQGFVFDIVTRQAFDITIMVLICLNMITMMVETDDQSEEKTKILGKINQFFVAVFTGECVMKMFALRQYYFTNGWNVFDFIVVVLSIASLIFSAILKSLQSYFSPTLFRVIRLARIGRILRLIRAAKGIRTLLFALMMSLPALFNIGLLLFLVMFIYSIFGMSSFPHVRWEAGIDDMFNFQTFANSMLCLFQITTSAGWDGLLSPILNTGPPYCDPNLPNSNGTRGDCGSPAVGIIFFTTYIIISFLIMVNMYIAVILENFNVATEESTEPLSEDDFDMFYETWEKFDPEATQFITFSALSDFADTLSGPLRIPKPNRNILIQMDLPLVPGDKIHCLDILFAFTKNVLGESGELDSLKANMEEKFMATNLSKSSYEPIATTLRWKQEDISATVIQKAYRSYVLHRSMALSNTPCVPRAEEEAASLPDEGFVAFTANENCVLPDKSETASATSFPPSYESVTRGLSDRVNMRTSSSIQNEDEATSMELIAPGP
row,IC50 [nM],Compound
1,102,"NS(=O)(=O)c1cc(NC(=O)c2cc(C(F)(F)F)nnc2N2CCCC(F)(F)CC2)ccn1 [Example 179, 3-(4,4-difluoroazepan-1-yl)-N-(2-sulfamoylpyridin-4-yl)-6-(trifluoromethyl)pyridazine-4-carboxamide]"
2,2.8,"C[C@@H]1CN(c2ncc(C(F)(F)F)cc2C(=O)Nc2ccnc(S(N)(=O)=O)c2)C[C@H](C)C1(F)F [Example 52, 2-[(3S,5R)-4,4-difluoro-3,5-dimethyl-1-piperidyl]-N-(2-sulfamoyl-4-pyridyl)-5-(trifluoromethyl)pyridin-3-carboxamide]"
3,94,"NS(=O)(=O)c1cc(NC(=O)c2cc(C(F)(F)F)cnc2N2CCC(C(F)(F)F)C2)ccn1 (centres unmarked) [Example 128, N-(2-sulfamoylpyridin-4-yl)-5-(trifluoromethyl)-2-[3-(trifluoromethyl)pyrrolidin-1-yl]pyridine-3-carboxamide]"
4,3.9,"C[C@H]1CN(c2ncc(C(F)(F)F)cc2C(=O)Nc2ccnc(S(N)(=O)=O)c2)CCC1(F)F (single isomer, unassigned) [Example 47]"
5,1860,"NS(=O)(=O)c1cc(NC(=O)c2cccnc2N2CCC(F)(F)CC2)ccn1 [Example 26, 2-(4,4-difluoropiperidin-1-yl)-N-(2-sulfamoylpyridin-4-yl)nicotinamide]"
6,654,"N#Cc1cncc(NC(=O)c2cc(C(F)(F)F)cnc2N2CCCCCC2)c1 [Example 193, 2-(azepan-1-yl)-N-(5-cyano-3-pyridyl)-5-(trifluoromethyl)-pyridine-3-carboxamide]"
7,3.8,"NS(=O)(=O)c1cc(NC(=O)c2cc(C(F)(F)F)c(C3CC3)nc2N2CCCC(F)(F)CC2)ccn1 [Example 185, 6-cyclopropyl-2-(4,4-difluoroazepan-1-yl)-N-(2-sulfamoylpyridin-4-yl)-5-(trifluoromethyl)nicotinamide]"
8,55,"NS(=O)(=O)c1cc(NC(=O)c2cc(Br)cnc2N2CCC(F)(F)CC2)ccn1 [Example 204, 5-bromo-2-(4,4-difluoropiperidin-1-yl)-N-(2-sulfamoylpyridin-4-yl)nicotinamide]"
9,114,"NS(=O)(=O)c1cc(NC(=O)c2cc(C(F)(F)F)cnc2N2CCCC(Cc3ccc(C(F)(F)F)cc3)C2)ccn1 (centres unmarked) [Example 83, N-(2-sulfamoyl-4-pyridyl)-5-(trifluoromethyl)-2-[3-[[4-(trifluoromethyl)phenyl]methyl]-1-piperidyl]pyridine-3-carboxamide]"
10,26,"NC(=O)c1cc(NC(=O)c2cc(C(F)(F)F)cnc2N2CCCC(F)(F)CC2)ccn1 [Example 137, 4-(2-(4,4-difluoroazepan-1-yl)-5-(trifluoromethyl)nicotinamido)picolinamide]"
11,13,"Cc1nc(N2CCC(F)(F)CC2)c(C(=O)Nc2cncc(S(N)(=O)=O)c2)c(C)c1Cl [Example 189, 5-chloro-2-(4,4-difluoro-1-piperidyl)-4,6-dimethyl-N-(5-sulfamoyl-3-pyridyl)pyridine-3-carboxamide]"
12,29,"NS(=O)(=O)c1cc(NC(=O)c2cc(C(F)(F)F)cnc2N2C[C@H]3CC[C@H]3C2)ccn1 [Example 68, 2-((1R,5S)-3-azabicyclo[3.2.0]heptan-3-yl)-N-(2-sulfamoylpyridin-4-yl)-5-(trifluoromethyl)nicotinamide]"
13,147,"NS(=O)(=O)c1cc(NC(=O)c2cc(C(F)(F)F)cnc2N2CCSCC2)ccn1 [Example 84, N-(2-sulfamoyl-4-pyridyl)-2-thiomorpholino-5-(trifluoromethyl)pyridine-3-carboxamide]"
14,37,"N#Cc1cc(C(=O)Nc2ccnc(S(N)(=O)=O)c2)c(N2CCC(F)(F)CC2)nc1C(F)(F)F [Example 43, 5-cyano-2-(4,4-difluoropiperidin-1-yl)-N-(2-sulfamoylpyridin-4-yl)-6-(trifluoromethyl)nicotinamide]"
